Measurements as given in PubChem BioAssay (NCI).
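Growth conditions: 96-well plates. Treatment: test compound, 48 hours, 5 concentrations. Analysis: linear interpolation between bracketing concentrations; unreached endpoints set to highest concentration. The concentration for full growth arrest is given as TGI.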

Tests used:
Assay in all cases: NCI anticancer screen, dose series, 48 h
KM20L2 colon = tested on: KM20L2 colon
LXFL 529 NSCLC = tested on: LXFL 529 NSCLC
M19-MEL melanoma = tested on: M19-MEL melanoma
DLD-1 colon = tested on: DLD-1 colon
SNB-78 CNS = tested on: SNB-78 CNS
DMS 273 small cell lung = tested on: DMS 273 small cell lung
HOP-18 NSCLC = tested on: HOP-18 NSCLC
RXF-631 renal = tested on: RXF-631 renal
XF 498 CNS = tested on: XF 498 CNS

Compound	TGI (KM20L2 colon)	TGI (LXFL 529 NSCLC)	TGI (M19-MEL melanoma)	TGI (DLD-1 colon)	TGI (SNB-78 CNS)	TGI (DMS 273 small cell lung)	TGI (HOP-18 NSCLC)	TGI (RXF-631 renal)	TGI (XF 498 CNS)
O=C(CSc1nnc(Cc2ccccc2)o1)Nc1ccccc1Cl	> 100 µM	> 100 µM	> 100 µM	> 100 µM	> 100 µM	> 100 µM	> 100 µM	–	–
Fc1ccc2c(c1)SC1Oc3ccccc3-c3c1c-2nn3-c1ccccc1 (stereo not given)	> 100 µM	> 100 µM	> 100 µM	> 100 µM	> 100 µM	> 100 µM	> 100 µM	> 100 µM	> 100 µM
Cc1cc(Cl)ccc1NC(=O)C(=O)Cc1ccc([N+](=O)[O-])c([N+](=O)[O-])c1CC(=O)C(=O)Nc1ccc(Cl)cc1C	> 100 µM	> 100 µM	> 100 µM	–	> 100 µM	> 100 µM	> 100 µM	–	> 100 µM
COc1cc(C(C#N)NNC(=O)Cc2ccccc2)cc(OC)c1OC (stereo not given)	> 100 µM	> 100 µM	> 100 µM	> 100 µM	> 100 µM	> 100 µM	> 100 µM	–	–
CC(C)[C@H]1CO[C@@H]2O[C@H](C)CC(=O)N21	> 100 µM	> 100 µM	> 100 µM	> 100 µM	–	–	> 100 µM	–	–
Cc1ccc(C(=O)OC(C)C)cc1N=NN(C)C	> 100 µM	> 100 µM	> 100 µM	> 100 µM	> 100 µM	> 100 µM	–	–	–
Cc1ccc(/C=C/C(=O)C(C)C)cc1	> 100 µM	> 100 µM	> 100 µM	> 100 µM	> 100 µM	–	–	–	–
Cc1nc2nn(Cc3ccccc3)cc2c(=O)o1	> 100 µM	> 100 µM	> 100 µM	> 100 µM	> 100 µM	> 100 µM	–	> 100 µM	> 100 µM
Nc1ccc(C(=O)NN2C(=O)C(Cl)C2c2cc(Br)cc(Br)c2O)cc1 (stereo not given)	> 100 µM	> 100 µM	48.3 µM	> 100 µM	> 100 µM	> 100 µM	38.2 µM	–	> 100 µM
CC(OC1CC(=O)CC2C(=O)C=CC(=O)C12)c1ccccc1 (stereo not given)	31 µM	19.8 µM	29.8 µM	26.7 µM	36.3 µM	33.8 µM	32.2 µM	–	29.4 µM
CC(C)c1cccc(C(C)C)c1NC(=O)C(=O)CC(=O)CC(c1ccccc1)c1c(O)c2ccccc2oc1=O (stereo not given)	> 100 µM	–	–	> 100 µM	–	–	–	–	–
COc1cc2c(cc1OC)C(=O)Cc1ccc3c(c1CNCC2)OCO3	> 100 µM	> 100 µM	> 100 µM	> 100 µM	> 100 µM	–	> 100 µM	–	> 100 µM
O=[N+]([O-])c1cc2c(cc1O)[nH]c1cccc([N+](=O)[O-])c12	–	–	> 100 µM	> 100 µM	> 100 µM	> 100 µM	> 100 µM	–	> 100 µM
CN/C=C(/c1ccc(OC)cc1)C(O)c1ccc(OC)c(OC)c1 (stereo not given)	> 100 µM	–	> 100 µM	> 100 µM	–	> 100 µM	> 100 µM	> 100 µM	> 100 µM
COc1cc2c(cc1O)[C@H](C)C(c1ccccc1OC)O2 (stereo not given in full)	24.4 µM	27.1 µM	> 100 µM	> 100 µM	> 100 µM	> 100 µM	> 100 µM	–	24 µM
